Each structure is given as a SMILES string.

This assay has as its system Human RSV-A (“Long” strain). Description: RSV-A assay: inhibition of cytopathic effect in Hep-2 cells, ATPlite readout. Type of assay: cell-based, Human respiratory syncytial virus (HRSV). Particulars: human respiratory syncytial virus, HEp-2, 120 h, read-out: Human RSV-A (“Long” strain) EC50. An excerpt:
Hep-2 cells, (originally derived from tumors grown in irradiated-cortisonised weanling rats that had been injected with epidermoid carcinoma tissue from a person's larynx, but later found to be indistinguishable from HeLa cells by PCR DNA analysis), were used for the culturing of genotype A, “Long” strain RSV. Flasks were inoculated with RSV and viral stocks were collected once cytopathic effect (CPE) was greater than 90%. Viral stocks in 25% sucrose media were snap frozen using liquid nitrogen to increase viral stability. Viral stock titers were quantified by tissue culture infectious dose 50% (TCID50) using 8,000 cells per well and 3-fold viral dilutions across a 96-well plate, cultured for 4 days. Viral stock titers were also quantified by a plaque forming unit assay, as described elsewhere.
Following extensive parameter testing, the final assay is run as follows: Hep-2 cells are seeded into the inner 60 wells of a 96-well plate at 8,000 cells per well in a volume of 50 μL using Growth Media (DMEM without phenol red, 1% L-Glut, 1% Penn/Strep, 1% nonessential amino acids, 10% heat-inactivated FBS). 2-fold serial dilutions of control and test compounds are added to the wells in duplicate in a total volume of 25 μL. Viral stock is then added to the wells at a multiplicity of infection (MOI) of 0.1 in a volume of 25 μL, bringing the total volume of each well to 100 μL. The MOI is calculated using the PFU/mL, or TCID50 if unavailable. Each 96-well plate has a control column of 6 wells with cells and virus but no compound (negative control, max CPE), a column with cells but no compound or virus (positive control, minimum CPE), and a column with no cells or virus or compound (background plate/reagent control). The control wells with cells but no virus are given an additional 25 uL of growth media containing an equal quantity of sucrose as those wells receiving the viral stock in order to keep consistent in media and volume conditions. The outer wells of the plate are filled with 125 μL of moat media (DMEM, 1% Penn/Strep) to act as a thermal and evaporative moat around the test wells. Following a 5-day incubation period, the plates are read using ATPlite (50 uL added per well), which quantifies the amount of ATP (a measure of cell health) present in each well. Assay plates are read using the Envision luminometer. In parallel, cytotoxicity is examined on an additional 96-well plate treated in an identical manner, but substituting the 25 μL of viral stock for 25 μL of growth media. […] EC50 ranges are as follows: A<0.4 μM; B 0.4-0.8 μM; C>0.8 μM and CC50 ranges are as follows: A>50 μM; B 10-50 μM; C<10 μM.

Take `O=C1Nc2ccccc2C(c2ccccc2)=N[C@@H]1Nc1nnc(-c2cnc(N3CCOCC3)cn2)o1` [Example 161]: the EC50 (usually the concentration at which the effect is half-maximal) is over 800 nM.

In the case of `O=C1Nc2ccccc2C(c2ccccc2)=N[C@@H]1Nc1nnc(-c2cnc(C(F)(F)F)nc2N2CCOCC2)o1` [Example 162], the EC50 is under 400 nM.

Turning to `O=C1Nc2ccccc2C(c2ccccc2)=N[C@@H]1Nc1nnc(-c2nc3ccccn3c2N2CCOCC2)o1` [Example 163], the EC50 is over 800 nM.

For the molecule `Cn1cc(N2CCOCC2)c(-c2nnc(N[C@H]3N=C(c4ccccc4)c4ccccc4NC3=O)o2)n1` [Example 164], the EC50 was under 400 nM.

As to `O=C1Nc2ccccc2C(c2ccccc2)=N[C@@H]1Nc1nnc(-c2cnc(N3CCOCC3)nc2)o1` [Example 165], the EC50 lay in the range of 400 to 800 nM.

For `O=C1Nc2ccccc2C(c2ccccc2)=N[C@@H]1Nc1nnc(-c2cnc(N3CC4CCC(C3)O4)nc2)o1` [Example 166], the concentration for a half-maximal effect (EC50) was over 800 nM.

For `O=C1Nc2ccccc2C(c2ccccc2)=N[C@@H]1Nc1nnc(-c2cnc(C3CC3)nc2N2CCOCC2)o1` [Example 167], the EC50 was under 400 nM.

Take `O=C1Nc2ccccc2C(c2ccccc2)=N[C@@H]1Nc1nnc(-c2cnc(-n3cccn3)nc2N2CCOCC2)o1` [Example 172]: the EC50 is over 800 nM.

`O=C1Nc2ccccc2C(c2ccccc2)=N[C@@H]1Nc1nnc(-c2cnc(-n3cncn3)nc2N2CCOCC2)o1` [Example 173]: the EC50 was over 800 nM.

For `N#Cc1cnc(N2CCOCC2)c(-c2nnc(N[C@H]3N=C(c4ccccc4)c4ccccc4NC3=O)o2)c1` [Example 174], the concentration giving a half-maximal response (EC50) is under 400 nM.

Take `CCc1nc(N2CCOCC2)c(-c2nnc(N[C@H]3N=C(c4ccccc4)c4ccccc4NC3=O)o2)cc1C#N` [Example 176]: the EC50 was under 400 nM.

Take `Cn1ncc(-c2nnc(N[C@H]3N=C(c4ccccc4)c4ccccc4NC3=O)o2)c1N1CCOCC1` [Example 177]: the EC50 is over 800 nM.

For the molecule `Cn1ncc(N2CCOCC2)c1-c1nnc(N[C@H]2N=C(c3ccccc3)c3ccccc3NC2=O)o1` [Example 178], the half-maximal effective concentration (EC50) lay in the range of 400 to 800 nM.

As to `O=C1Nc2ccccc2C(c2ccccc2)=N[C@@H]1Nc1nnc(-c2sc3ncccc3c2N2CCOCC2)o1` [Example 180], the EC50 is under 400 nM.

`Cn1cc(-c2nnc(N[C@H]3N=C(c4ccccc4)c4ccccc4NC3=O)o2)c(N2CCOCC2)n1` [Example 181]: the EC50 is under 400 nM.

Regarding `O=C1Nc2ccccc2C(c2ccccc2)=N[C@@H]1Nc1nnc(-c2sc(Br)cc2N2CCOCC2)o1` [Example 182], the EC50 is under 400 nM.

For the molecule `N#Cc1ccc(-c2nnc(NC3N=C(c4ccccc4)c4ccccc4NC3=O)o2)s1` (stereo not shown) [Example 183], the half-maximal effective concentration (EC50) is under 400 nM.

For the molecule `O=C1Nc2ccccc2C(c2ccccc2)=NC1Nc1nnc(-c2ccc(N3CCCC3)cc2)o1` (stereo not shown) [Example 184], the EC50 was in the range of 400 to 800 nM.

Take `COc1cnc(-c2nnc(NC3N=C(c4ccccc4)c4ccccc4NC3=O)o2)c(F)c1` (stereo not shown) [Example 185]: the 50% effective concentration (EC50) was over 800 nM.

As to `Cn1nnc(-c2ccc(-c3nnc(NC4N=C(c5ccccc5)c5ccccc5NC4=O)o3)cc2)n1` (stereo not shown) [Example 186], the EC50 was over 800 nM.

`Cc1nc2ccc(-c3nnc(NC4N=C(c5ccccc5)c5ccccc5NC4=O)o3)cc2s1` (stereo not shown) [Example 187]: the EC50 was 400 to 800 nM.

Turning to `CC(C)c1nnc(NC2N=C(c3ccccc3)c3ccccc3NC2=O)o1` (stereo not shown) [Example 188], the EC50 is over 800 nM.

In the case of `CC(C)(C)c1nnc(NC2N=C(c3ccccc3)c3ccccc3NC2=O)o1` (stereo not shown) [Example 189], the EC50 was over 800 nM.

With `CCCc1nnc(NC2N=C(c3ccccc3)c3ccccc3NC2=O)o1` (stereo not shown) [Example 190], the EC50 was over 800 nM.

Regarding `COCc1nnc(NC2N=C(c3ccccc3)c3ccccc3NC2=O)o1` (stereo not shown) [Example 191], the EC50 was over 800 nM.

`O=C1Nc2ccccc2C(c2ccccc2)=NC1Nc1nnc(CCC(F)(F)F)o1` (stereo not shown) [Example 192]: the EC50 was over 800 nM.

On to `N#CCCc1nnc(NC2N=C(c3ccccc3)c3ccccc3NC2=O)o1` (stereo not shown) [Example 193], for which the EC50 is over 800 nM.

Take `CS(=O)(=O)Cc1nnc(NC2N=C(c3ccccc3)c3ccccc3NC2=O)o1` (stereo not shown) [Example 194]: the EC50 was over 800 nM.

On to `CC1(c2nnc(NC3N=C(c4ccccc4)c4ccccc4NC3=O)o2)CC1` (stereo not shown) [Example 195], for which the EC50 is over 800 nM.

As to `O=C1Nc2ccccc2C(c2ccccc2)=NC1Nc1nnc(C2CCC2)o1` (stereo not shown) [Example 196], the EC50 was over 800 nM.

As to `O=C1Nc2ccccc2C(c2ccccc2)=NC1Nc1nnc(C2CCCC2)o1` (stereo not shown) [Example 197], the EC50 was over 800 nM.

In the case of `O=C1Nc2ccccc2C(c2ccccc2)=NC1Nc1nnc([C@H]2CCCO2)o1` (stereo partly shown) [Example 198], the EC50 is over 800 nM.

For the molecule `O=C1Nc2ccccc2C(c2ccccc2)=NC1Nc1nnc(CCc2ccccc2)o1` (stereo not shown) [Example 199], the EC50 is over 800 nM.

Regarding `Cc1nc(-c2nnc(NC3N=C(c4ccccc4)c4ccccc4NC3=O)o2)ccc1C#N` (stereo not shown) [Example 200], the EC50 lay in the range of 400 to 800 nM.

`CN1C(=O)C(Nc2nnc(-c3ccc(F)cc3)o2)N=C(c2ccccc2)c2ccccc21` (stereo not shown) [Example 201]: the EC50 was over 800 nM.

Turning to `O=C1Nc2ccccc2C(c2ccccc2)=NC1Nc1nnc(-c2ccc(-n3ccc(C(F)(F)F)n3)cc2)o1` (stereo not shown) [Example 202], the EC50 is over 800 nM.

Turning to `O=C1Nc2ccccc2C(c2ccccc2)=NC1Nc1nnc(CC(F)(F)F)o1` (stereo not shown) [Example 203], the half-maximal effective concentration (EC50) was over 800 nM.

Take `CC1(C)C[C@@H]1c1nnc(NC2N=C(c3ccccc3)c3ccccc3NC2=O)o1` (stereo partly shown) [Example 205]: the EC50 was over 800 nM.

`CC1(C)CC(c2nnc(NC3N=C(c4ccccc4)c4ccccc4NC3=O)o2)C1` (stereo not shown) [Example 206]: the EC50 is over 800 nM.

For `O=C1Nc2ccccc2C(c2ccccc2)=NC1Nc1nnc([C@@H]2CCCO2)o1` (stereo partly shown) [Example 207], the half-maximal effective concentration (EC50) is over 800 nM.

For the molecule `CC(C)(Cc1ccccc1)c1nnc(NC2N=C(c3ccccc3)c3ccccc3NC2=O)o1` (stereo not shown) [Example 208], the EC50 was over 800 nM.

For `CN(c1nnc(-c2ccc(F)cc2)o1)C1N=C(c2ccccc2)c2ccccc2NC1=O` (stereo not shown) [Example 209], the EC50 is over 800 nM.

As to `CN1CCN(c2ccc(-c3nnc(NC4N=C(c5ccccc5)c5ccccc5NC4=O)o3)cc2)CC1` (stereo not shown) [Example 210], the EC50 is over 800 nM.

For `O=C1Nc2ccccc2C(c2ccccc2)=NC1Nc1nnc(-c2ccc(-n3cccn3)nc2)o1` (stereo not shown) [Example 211], the concentration for a half-maximal effect (EC50) is over 800 nM.

On to `O=C1Nc2ccccc2C(c2ccccc2)=NC1Nc1nnc(-c2cccc(-n3ccnc3)c2)o1` (stereo not shown) [Example 212], for which the EC50 is over 800 nM.

For the molecule `CC(C)(O)c1nnc(NC2N=C(c3ccccc3)c3ccccc3NC2=O)o1` (stereo not shown) [Example 213], the EC50 was over 800 nM.

As to `O=C1Nc2ccccc2C(c2ccccc2)=NC1Nc1nnc(C2CC(F)(F)C2)o1` (stereo not shown) [Example 214], the concentration for a half-maximal effect (EC50) was over 800 nM.

For `O=C1Nc2ccccc2C(c2ccccc2)=NC1Nc1nnc(C2CCOC2)o1` (stereo not shown) [Example 215], the EC50 was over 800 nM.

In the case of `O=C1Nc2ccccc2C(c2ccccc2)=NC1Nc1nnc(-c2ccc(-n3cncn3)c(F)c2)o1` (stereo not shown) [Example 216], the EC50 is 400 to 800 nM.

Take `Cc1cc(-c2nnc(NC3N=C(c4ccccc4)c4ccccc4NC3=O)o2)ccc1-n1cncn1` (stereo not shown) [Example 217]: the EC50 was 400 to 800 nM.

As for `Cc1cc(-n2cncn2)ccc1-c1nnc(NC2N=C(c3ccccc3)c3ccccc3NC2=O)o1` (stereo not shown) [Example 218], the EC50 is over 800 nM.

`COc1cc(-c2nnc(NC3N=C(c4ccccc4)c4ccccc4NC3=O)o2)ccc1-n1cnc(C)c1` (stereo not shown) [Example 219]: the EC50 is over 800 nM.
